Measurements: patent US6204293A, “Inhibitors of protein isoprenyl transferases” (University of Pittsburgh, priority 1998, dated 2001)
Where a name gives a salt, the structure may show the parent alone. Read-outs that look alike come from different tables or passages of the source. Each block holds one compound with its values, some of them ahead of it.

Biological target: T1, Rat brain protein farnesyltransferase (Rattus norvegicus, UniProt Q02293+Q04631)
T1 construct: Rat brain protein farnesyltransferase activity is measured; from tissue; host or cells: rat brain
T1 sequence (Q02293 whole entry, one chain of several): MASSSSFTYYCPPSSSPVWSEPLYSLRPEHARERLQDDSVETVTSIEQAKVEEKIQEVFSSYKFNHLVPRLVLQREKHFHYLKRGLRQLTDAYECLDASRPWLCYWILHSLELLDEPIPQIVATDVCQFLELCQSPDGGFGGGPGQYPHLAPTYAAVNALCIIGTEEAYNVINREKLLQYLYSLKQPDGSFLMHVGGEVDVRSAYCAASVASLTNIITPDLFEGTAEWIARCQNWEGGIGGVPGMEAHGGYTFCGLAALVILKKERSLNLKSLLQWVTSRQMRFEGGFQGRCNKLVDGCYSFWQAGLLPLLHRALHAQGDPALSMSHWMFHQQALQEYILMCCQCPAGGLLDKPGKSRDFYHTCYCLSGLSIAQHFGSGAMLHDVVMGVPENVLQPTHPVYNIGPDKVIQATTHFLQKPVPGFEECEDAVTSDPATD
Assay: % inhibition of farnesylation, scintillation proximity assay with biotin-K Ras B fragment
Format: biochemical
Conditions: for inhibition at 0.1 µM: read-out: % inhibition at 1 × 10^-7 M; for % inhibition at 1 × 10^-8 M / inhibition at 0.01 µM: Table 4, 1 × 10^-8 M; for inhibition at 0.01 µM: read-out: % inhibition at 1 × 10^-8 M; for % inhibition at 1 × 10^-5 M: Table 1
Procedure, shortened: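 Scintillation proximity read-out of farnesylation, using a biotinylated K Ras B fragment (0.1 mM final) in place of biotin-lamin. Enzyme purified from rat brain; results given as % inhibition.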

Compound: CSCC[C@H](NC(=O)c1ccc(OCCOc2ccccc2)cc1-c1ccccc1C)C(=O)O [Example 561, N-[4-(2-phenoxy)ethoxy-2-(2-methylphenyl)benzoyl]methionine]
- inhibition at 1 µM (read-out: % inhibition at 1 × 10^-6 M, Table 2, 1 × 10^-6 M): 91%

Compound: CSCC[C@H](NC(=O)c1ccc(-c2cccc(-c3ccccc3)c2)cc1-c1ccccc1C)C(=O)[O-].[Li+] [Example 787]
- % inhibition at 1 × 10^-6 M (Table 2, 1 × 10^-6 M): 70%

Compound: CSCC[C@H](NC(=O)c1ccc(COCc2cnc(-c3ccc(Cl)cc3)o2)cc1-c1ccccc1C)C(=O)O [Example 894, N-[4-(2-(4-chlorophenyl)oxazol-5-ylmethoxymethyl)-2-(2-methylphenyl)benzoyl]methionine lithium salt]
- inhibition at 0.1 µM: 89%

Compound: CSCCC(NC(=O)c1ccc(NC(=O)Cc2cscn2)cc1-c1ccccc1)C(=O)O (stereo not shown) [Example 162]
- % inhibition at 1 × 10^-6 M (Table 2, 1 × 10^-6 M): 12%

Compound: N-[4-(2-adamantan-1-ylpropoxy)-2-(2-methylphenyl)benzoyl]methionine, lithium salt [Example 563]
- % inhibition at 1 × 10^-7 M (Table 3, 1 × 10^-7 M): 95%

Compound: CSCC[C@H](NC(=O)c1ccc(CNCCN2CCOCC2)cc1-c1ccccc1)C(=O)O [Example 365]
- % inhibition at 1 × 10^-5 M: 97%

Compound: CSCC[C@H](NC(=O)c1ccc(CC(Cc2ccccc2)c2ccccc2)cc1-c1ccccc1C)C(=O)[O-].[Li+] (stereo partly shown) [Example 572]
- % inhibition at 1 × 10^-6 M (Table 2, 1 × 10^-6 M): 91%

Compound: CSCC[C@H](NC(=O)c1ccc(/C=C/CCc2ccccc2)cc1-c1ccccc1C)C(=O)O [Example 472]
- % inhibition at 1 × 10^-6 M (Table 2, 1 × 10^-6 M): 97%

Compound: CSCC[C@H](NC(=O)c1ccc(CNC(CC2CCCCC2)CC2CCCCC2)cc1-c1ccccc1C)C(=O)O [Example 524]
- % inhibition at 1 × 10^-7 M (Table 3, 1 × 10^-7 M): 99%

Continued, values first:

- inhibition at 0.1 µM (Table 3, 1 × 10^-7 M): 90%
Compound: CSCC[C@H](NC(=O)c1ccc(COCc2ccccc2)cc1-c1ccccc1C)C(=O)NS(=O)(=O)c1ccccc1 [Example 580, Benzenesulfonyl N-2-[4-(benzyloxymethyl)-2-(2-methylphenyl)benzoyl]amino-4-methylthiobutanamide]

- % inhibition at 1 × 10^-8 M: 92%
Compound: CCSC[C@H](CCc1ccccc1)NCc1ccc(C(=O)N[C@@H](CCSC)C(=O)O)c(-c2ccccc2C)c1 [Example 995]

- inhibition at 0.01 µM: 91%
Compound: CSCC[C@H](NC(=O)c1ccc(CO[C@H](CSC(C)(C)C)CC2CCCCC2)cc1-c1ccccc1C)C(=O)O [Example 883, N-[4-(3-Cyclohexyl-1-t-butylthiopropan-2-yl)oxymethyl-2-(2-methylphenyl)benzoyl]methionine lithium salt]

- % inhibition at 1 × 10^-6 M (Table 2, 1 × 10^-6 M): 35%
Compound: CSCC[C@H](NC(=O)c1ccc(CN(C(=O)OC(C)(C)C)C(CC2CCCCC2)CC2CCCCC2)cc1-c1ccccc1C)C(=O)O [Example 886]

- % inhibition at 1 × 10^-8 M: > 50%
Compound: CSCC[C@H](NC(=O)c1ccc(NC[C@H]2NCC[C@H]2S)cc1-c1ccccc1)C(=O)O [Example 960]

- % inhibition at 1 × 10^-5 M: 57%
Compound: CSCC[C@H](NC(=O)c1ccc(CNc2cccc(N(C)C)c2)cc1-c1ccccc1)C(=O)O [Example 683]

- % inhibition at 1 × 10^-6 M (Table 2, 1 × 10^-6 M): 48%
Compound: CSCC[C@H](NC(=O)c1ccc(S(=O)(=O)NCCN2CCCCC2)cc1-c1ccccc1C)C(=O)O [Example 774]

- % inhibition at 1 × 10^-6 M (Table 2, 1 × 10^-6 M): 96%
Compound: CSCC[C@H](NC(=O)c1ccc(CN(Cc2ccc(C(F)(F)F)cc2)c2ccccc2)cc1-c1ccccc1C)C(=O)O [Example 782]

- % inhibition at 1 × 10^-6 M (Table 2, 1 × 10^-6 M): 79%
Compound: CSCC[C@H](NC(=O)c1ccc(S(=O)(=O)NCCC2CCCCC2)cc1-c1ccccc1C)C(=O)O [Example 772]

- % inhibition at 1 × 10^-6 M (Table 2, 1 × 10^-6 M): 65%
Compound: CSCC[C@H](NC(=O)c1ccc(CN(C(CC2CCCCC2)CC2CCCCC2)S(=O)(=O)c2ccccc2)cc1-c1ccccc1C)C(=O)O [Example 911]

- % inhibition at 1 × 10^-5 M: > 50%
Compound: CSCC[C@H](NC(=O)c1ccc(NC(=O)[C@@H]2C[C@@H](O)CN2)cc1-c1ccccc1)C(=O)O [Example 952]

- inhibition at 0.01 µM: 93%
Compound: CCSC[C@H](CC1CCCCC1)OCc1ccc(C(=O)N[C@@H](CCSC)C(=O)O)c(-c2ccccc2C)c1 [Example 606, Lithium Salt]

- % inhibition at 1 × 10^-7 M (Table 3, 1 × 10^-7 M): 72%
Compound: CSCC[C@H](NC(=O)c1ccc(CNc2ccc(N3CCOCC3)cc2)cc1-c1ccccc1C)C(=O)O [Example 863]
